{"source": "patent US20260232767A1", "about": "“INTERLEUKIN-23 RECEPTOR ANTAGONIST PEPTIDES FOR USE IN THE TREATMENT OF PSORIASIS” (Janssen Pharmaceutica NV, priority 2023, published 2026)", "tested_on": "scalp psoriasis", "assay": "Scalp Specific IGA (ss-IGA), Example 1", "type": "in vivo, human", "conditions": "Week 16", "protocol": "The Scalp Specific Investigator Global Assessment (ss-IGA) instrument is used to evaluate the disease severity of scalp psoriasis. The lesions are assessed in terms of the clinical signs of redness, thickness, and scaliness which are scored as: absence of disease (0), very mild disease (1), mild disease (2), moderate disease (3), and severe disease (4).\nClinician-reported outcomes including Psoriasis Area and Severity Index (PASI), Body Surface Area (BSA), Investigator's Global Assessment (IGA), Nail Psoriasis Area and Severity Index (NAPSI), Fingernail Physician's Global Assessment (f-PGA), Static Physician's Global Assessment of Genitalia (s-PGA-G), Physician's Global Assessment of Hands and/or Feet (hf-PGA), and Scalp Specific Investigator Global Assessment (ss-IGA) were obtained at Week 0, 8, and 16. PASI and IGA were also obtained at Weeks 1, 2, 4, and 12, and at Week 20, four weeks after the administration of the tablets has stopped.\nProportion of Patients Achieving scalp-specific (ss)-IGA score 0/1 and ss-IGA score 0 and With at Least a 2-Grade Improvement from baseline at Week 16."}
{"smiles": "CC(=O)NCCCC[C@@H]1NC(=O)[C@H](Cc2c[nH]c3c(C)cccc23)NC(=O)[C@H]([C@@H](C)O)NC(=O)[C@H](CC(N)=O)NC(=O)[C@@H](NC(C)=O)C(C)(C)SSC(C)(C)[C@@H](C(=O)N[C@@H](Cc2ccc(OCCN)cc2)C(=O)N[C@@H](Cc2ccc3ccccc3c2)C(=O)NC2(C(=O)N[C@@H](CCC(=O)O)C(=O)N[C@@H](CC(N)=O)C(=O)N[C@@H](Cc3cccnc3)C(=O)N(C)CC(N)=O)CCOCC2)NC1=O", "note": "[IL-23 receptor antagonist peptide, Ac-[Pen]*-N-T-[W(7-Me)]-[Lys(Ac)]-[Pen]*-Phe[4-(2-aminoethoxy)]-[2-Nal]-[THP]-E-N-[3-Pal]-Sarc-NH2 (*[Pen]-[Pen]* formdisulfidebond)]", "values": [{"measurement": "ss-IGA score 0/1 and ≥2-grade improvement from baseline, %", "setting": "25 mg BID, baseline ss-IGA score ≥2, n=32", "result": "(65.6) %"}, {"measurement": "ss-IGA score 0/1 and ≥2-grade improvement from baseline, %", "setting": "25 mg QD, baseline ss-IGA score ≥2, n=37", "result": "(32.4) %"}, {"measurement": "ss-IGA score 0/1 and ≥2-grade improvement from baseline, %", "setting": "50 mg QD, baseline ss-IGA score ≥2, n=40", "result": 70.0, "unit": "%"}, {"measurement": "ss-IGA score 0/1 and ≥2-grade improvement from baseline, %", "setting": "100 mg BID, baseline ss-IGA score ≥2, n=36", "result": 75.0, "unit": "%"}, {"measurement": "ss-IGA score 0/1 and ≥2-grade improvement from baseline, %", "setting": "100 mg QD, baseline ss-IGA score ≥2, n=40", "result": 67.5, "unit": "%"}, {"measurement": "Response rate ss-IGA score 0/1 with ≥2-grade improvement from baseline", "setting": "all doses vs placebo", "result": "significantly higher than placebo"}]}
